ChEMBL document CHEMBL5143744, “Discovery of Tenapanor: A First-in-Class Minimally Systemic Inhibitor of Intestinal Na+/H+ Exchanger Isoform 3” (ACS Med Chem Lett, 2022)
pIC50: −log10 of the molar value. Active and inactive are the calls of the source. No cut-off for these calls is given here.

Tests used:
[1] = Drug metabolism in Sprague-Dawley rat at 30 mg/kg, po administered via gavage by LC-MS/MS analysis; assay type: ADME, organism-based; conditions: in vivo
[2] = In vivo inhibition of NEH3 in Sprague-Dawley rat assessed as increase in fecal water content at 0.1 to 3 mg/kg, po administered via gavage measured after 6 hrs; assay type: functional; design: scale not given: the % may be the effect or the level left; conditions: dose 0.1-3 mg/kg
[3] = Cmax in Sprague-Dawley rat at 30 mg/kg, po administered via gavage by LC-MS/MS analysis; assay type: ADME, organism-based; design: dose 30 mg/kg, route po; conditions: in vivo
Rattus norvegicus [4] = assay: In vivo inhibition of NEH3 in Sprague-Dawley rat assessed as reduction in sodium excretion in urine at 0.1 to 3 mg/kg, po administered via gavage measured after 16 hrs by ion chromatography; assay type: functional, organism-based; conditions: dose 0.1-3 mg/kg
[5] = Drug recovery in Sprague-Dawley rat feces at 3 mg/kg, po administered via gavage measured after 64 hrs by LC-MS/MS analysis; assay type: ADME, organism-based; conditions: faeces, read-out: Drug recovery
[6] = Drug metabolism in Sprague-Dawley rat feces at 3 mg/kg, po administered via gavage measured after 64 hrs by LC-MS/MS analysis; assay type: ADME, organism-based; conditions: in vivo
hERG (KCNH2) = hERG (KCNH2) (Homo sapiens, UniProt Q12809); assay: Inhibition of human ERG at 10 uM relative to control; assay type: toxicity
[7] = In vivo inhibition of NEH3 in Sprague-Dawley rat assessed as fecal form score at 3 mg/kg, po administered via gavage measured after 6 hrs; assay type: functional
[8] = In vivo inhibition of NEH3 in Sprague-Dawley rat assessed as fecal water content at 3 mg/kg, po administered via gavage measured after 6 hrs; assay type: functional; design: scale not given: the % may be the effect or the level left
[9] = In vivo inhibition of NEH3 in Sprague-Dawley rat assessed as sodium excretion in urine at 3 mg/kg, po administered via gavage measured after 16 hrs by ion chromatography relative to control; design: scale not given: the % may be the effect or the level left
[10] = Cmax in Sprague-Dawley rat at 1.5 mg/kg, po administered via gavage by LC-MS/MS analysis; assay type: ADME, organism-based; design: dose 1.5 mg/kg, route po; conditions: in vivo
[11] = target: Sodium/hydrogen exchanger 3 (Rattus norvegicus, UniProt P26433); assay: Inhibition of rat NHE3 expressed in opossum kidney cells assessed as reduction in Na-HEPES buffer-mediated pH recovery in presence of NEH1 inhibitor ethyl isopropyl amiloride by BCECF-AM dye based fluorescence assay; assay type: cell-based, Kidney epithelial cell
[12] = target: T1, Sodium/hydrogen exchanger 3 (Homo sapiens, UniProt P48764); assay: Inhibition of human NHE3 expressed in opossum kidney cells assessed as reduction in Na-HEPES buffer-mediated pH recovery in presence of NEH1 inhibitor ethyl isopropyl amiloride by BCECF-AM dye based fluorescence assay; assay type: cell-based, Kidney epithelial cell
T1 sequence (P48764 whole entry): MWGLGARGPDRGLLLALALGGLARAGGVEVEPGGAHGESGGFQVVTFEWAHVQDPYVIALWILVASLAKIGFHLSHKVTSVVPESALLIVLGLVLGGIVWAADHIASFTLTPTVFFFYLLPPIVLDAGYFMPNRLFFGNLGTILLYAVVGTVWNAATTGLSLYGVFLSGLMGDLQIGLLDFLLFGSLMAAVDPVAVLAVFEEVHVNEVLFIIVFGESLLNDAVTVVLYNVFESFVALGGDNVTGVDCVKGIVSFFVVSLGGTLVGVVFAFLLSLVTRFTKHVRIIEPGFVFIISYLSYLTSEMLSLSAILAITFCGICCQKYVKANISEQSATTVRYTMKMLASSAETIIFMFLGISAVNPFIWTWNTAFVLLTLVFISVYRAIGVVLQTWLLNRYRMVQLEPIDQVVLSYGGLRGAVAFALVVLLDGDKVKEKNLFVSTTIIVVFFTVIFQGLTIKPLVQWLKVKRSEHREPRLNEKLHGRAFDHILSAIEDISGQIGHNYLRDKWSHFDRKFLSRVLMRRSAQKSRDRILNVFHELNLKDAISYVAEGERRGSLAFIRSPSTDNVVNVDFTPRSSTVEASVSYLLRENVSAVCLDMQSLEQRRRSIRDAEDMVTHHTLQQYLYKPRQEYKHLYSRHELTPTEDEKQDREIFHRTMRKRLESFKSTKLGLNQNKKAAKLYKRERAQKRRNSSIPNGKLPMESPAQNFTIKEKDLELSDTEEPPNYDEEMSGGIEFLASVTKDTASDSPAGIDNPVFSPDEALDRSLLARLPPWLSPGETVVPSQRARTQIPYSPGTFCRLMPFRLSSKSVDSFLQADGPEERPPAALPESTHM

[13] = AUC in Sprague-Dawley rat at 1.5 mg/kg, po administered via gavage by LC-MS/MS analysis; conditions: in vivo
Rattus norvegicus [14] = assay: In vivo inhibition of NEH3 in Sprague-Dawley rat assessed as increase in cecum water content at 10 mg/kg, po administered via gavage measured after 6 hrs; assay type: functional, organism-based
Rattus norvegicus [15] = assay: In vivo inhibition of NEH3 in Sprague-Dawley rat assessed as increase in colon water content at 10 mg/kg, po administered via gavage measured after 6 hrs; assay type: functional, organism-based
[16] = Drug metabolism in Sprague-Dawley rat feces at 0.1 mg/kg, po administered via gavage measured after 72 hrs by LC-MS/MS analysis; assay type: ADME, organism-based; conditions: in vivo
[17] = Drug recovery in Sprague-Dawley rat feces at 0.1 mg/kg, po administered via gavage measured after 72 hrs by LC-MS/MS analysis; assay type: ADME, organism-based; conditions: faeces, read-out: Drug recovery
[18] = AUC in Sprague-Dawley rat at 11 mg/kg, po administered via gavage by LC-MS/MS analysis; conditions: in vivo
[19] = Cmax in Sprague-Dawley rat at 11 mg/kg, po administered via gavage by LC-MS/MS analysis; assay type: ADME, organism-based; design: dose 11 mg/kg, route po; conditions: in vivo
[20] = Apparent permeability in MDCK cells at 10 uM measured after 60 mins by LC-MS/MS analysis; assay type: ADME, cell-based, Canis lupus familiaris; conditions: dog, 1 h
[21] = Oral bioavailability in Sprague-Dawley rat at 11 mg/kg administered via gavage by LC-MS/MS analysis; assay type: ADME, organism-based; conditions: in vivo

Chain of Sodium/hydrogen exchanger 3 (Rattus norvegicus, UniProt P26433) (P26433 whole entry): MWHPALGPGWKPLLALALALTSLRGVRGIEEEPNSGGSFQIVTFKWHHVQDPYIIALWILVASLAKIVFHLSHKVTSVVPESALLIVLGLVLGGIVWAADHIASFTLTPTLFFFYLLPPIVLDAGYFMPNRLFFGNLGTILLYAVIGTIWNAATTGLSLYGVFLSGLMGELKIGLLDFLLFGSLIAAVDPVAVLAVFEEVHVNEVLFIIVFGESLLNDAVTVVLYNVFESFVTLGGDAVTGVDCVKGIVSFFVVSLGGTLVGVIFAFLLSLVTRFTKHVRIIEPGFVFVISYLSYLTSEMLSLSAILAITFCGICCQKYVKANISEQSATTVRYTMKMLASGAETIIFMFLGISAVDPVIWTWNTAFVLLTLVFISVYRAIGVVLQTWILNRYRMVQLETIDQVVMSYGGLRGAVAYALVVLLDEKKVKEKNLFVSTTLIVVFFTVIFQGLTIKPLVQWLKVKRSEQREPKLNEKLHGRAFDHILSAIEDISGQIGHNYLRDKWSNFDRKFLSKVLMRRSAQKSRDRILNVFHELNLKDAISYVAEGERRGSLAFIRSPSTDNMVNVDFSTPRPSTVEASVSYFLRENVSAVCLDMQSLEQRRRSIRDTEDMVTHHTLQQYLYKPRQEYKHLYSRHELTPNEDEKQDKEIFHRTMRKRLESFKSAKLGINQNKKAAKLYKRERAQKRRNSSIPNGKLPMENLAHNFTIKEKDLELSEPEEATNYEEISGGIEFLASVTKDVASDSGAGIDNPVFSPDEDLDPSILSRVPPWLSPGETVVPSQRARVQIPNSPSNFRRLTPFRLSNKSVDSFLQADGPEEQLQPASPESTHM
Chain of hERG (KCNH2) (Q12809 whole entry): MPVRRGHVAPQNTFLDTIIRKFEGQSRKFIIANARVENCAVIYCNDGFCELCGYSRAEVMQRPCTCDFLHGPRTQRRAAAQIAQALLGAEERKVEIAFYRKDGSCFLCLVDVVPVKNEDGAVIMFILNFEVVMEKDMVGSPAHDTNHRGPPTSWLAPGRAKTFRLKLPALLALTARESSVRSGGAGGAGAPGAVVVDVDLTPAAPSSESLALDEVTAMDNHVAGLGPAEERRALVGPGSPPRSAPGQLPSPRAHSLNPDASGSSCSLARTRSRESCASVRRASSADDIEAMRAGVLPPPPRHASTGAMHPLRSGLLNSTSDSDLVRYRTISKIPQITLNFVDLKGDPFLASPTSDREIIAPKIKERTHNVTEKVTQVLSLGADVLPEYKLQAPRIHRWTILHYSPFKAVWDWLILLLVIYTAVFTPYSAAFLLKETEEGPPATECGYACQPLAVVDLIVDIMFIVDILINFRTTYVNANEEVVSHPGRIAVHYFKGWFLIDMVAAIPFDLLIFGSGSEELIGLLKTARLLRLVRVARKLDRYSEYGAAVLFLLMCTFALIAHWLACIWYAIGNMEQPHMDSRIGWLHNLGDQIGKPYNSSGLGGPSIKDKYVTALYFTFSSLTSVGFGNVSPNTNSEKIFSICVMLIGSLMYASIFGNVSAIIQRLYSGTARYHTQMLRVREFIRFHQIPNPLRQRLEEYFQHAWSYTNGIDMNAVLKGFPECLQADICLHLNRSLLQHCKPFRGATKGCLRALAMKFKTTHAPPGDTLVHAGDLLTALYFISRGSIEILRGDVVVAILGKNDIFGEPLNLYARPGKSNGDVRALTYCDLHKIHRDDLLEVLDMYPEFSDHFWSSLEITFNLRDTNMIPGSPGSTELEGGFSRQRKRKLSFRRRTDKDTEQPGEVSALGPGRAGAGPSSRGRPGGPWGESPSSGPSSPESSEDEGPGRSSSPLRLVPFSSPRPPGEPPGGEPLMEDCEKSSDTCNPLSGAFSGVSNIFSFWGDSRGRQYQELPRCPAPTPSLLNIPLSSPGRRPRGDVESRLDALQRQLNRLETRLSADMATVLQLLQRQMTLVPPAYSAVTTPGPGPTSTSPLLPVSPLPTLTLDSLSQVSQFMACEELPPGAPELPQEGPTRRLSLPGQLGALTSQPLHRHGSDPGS

Compound	Activity [7]	Activity [8] [%]	Activity [9] [%]	pIC50 [11]	pIC50 [12]	further results
CN1Cc2c(Cl)cc(Cl)cc2[C@H](c2cccc(S(=O)(=O)NCCOCCOCCOCCNC(=O)NCCOCCOCCOCCNS(=O)(=O)c3cccc([C@@H]4CN(C)Cc5c(Cl)cc(Cl)cc54)c3)c2)C1						Drug metabolism [1]: Metabolite_Notdetected; Activity [2]: 10%; Cmax ([3]; Sprague-Dawley, read-out: Cmax): < 5 ng/mL; inhibition (Rattus norvegicus [4]): Active; dose excreted at 64 h [5]: 82%; Drug metabolism [6]: Metabolite_Detected; inhibition at 10 µM (hERG (KCNH2)): < 50%
CN1Cc2c(Cl)cc(Cl)cc2C(c2ccc(S(=O)(=O)NCCOCCOCCNC(=O)COCC(=O)NCCOCCOCCNS(=O)(=O)c3ccc(C4CN(C)Cc5c(Cl)cc(Cl)cc54)cc3)cc2)C1 (racemic)	2.5	59	29			
CN1Cc2c(Cl)cc(Cl)cc2[C@H](c2cccc(NC(=O)[C@H](O)[C@@H](O)[C@H](O)[C@H](O)CO)c2)C1				7.40	7.60	Cmax [10]: 6 ng/mL; AUC [13]: 12 ng·h/mL; inhibition (Rattus norvegicus [14]): Active; inhibition (Rattus norvegicus [15]): Active
CN1Cc2c(Cl)cc(Cl)cc2C(c2cccc(S(=O)(=O)NCC(=O)O)c2)C1 (racemic)				7.00	7.00	
CN1Cc2c(Cl)cc(Cl)cc2C(c2cccc(S(=O)(=O)NCCOCCOCCNS(=O)(=O)c3cccc(C4CN(C)Cc5c(Cl)cc(Cl)cc54)c3)c2)C1 (racemic)					5.30	
CN1Cc2c(Cl)cc(Cl)cc2C(c2cccc(NC(=O)[C@H](O)[C@@H](O)[C@H](O)[C@H](O)CO)c2)C1 (mixture of isomers)				7.40	7.30	
CN1Cc2c(Cl)cc(Cl)cc2[C@H](c2cccc(S(=O)(=O)NCCOCCOCCOCCNC(=O)NCCCNC(=O)NCCOCCOCCOCCNS(=O)(=O)c3cccc([C@@H]4CN(C)Cc5c(Cl)cc(Cl)cc54)c3)c2)C1						Drug metabolism [1]: Metabolite_Notdetected; Cmax ([3]; Sprague-Dawley, read-out: Cmax): < 15 ng/mL; dose excreted at 64 h [5]: 96%; Drug metabolism [6]: Metabolite_Notdetected; inhibition at 10 µM (hERG (KCNH2)): < 50%
CN1Cc2c(Cl)cc(Cl)cc2[C@H](c2cccc(S(=O)(=O)NCCOCCOCCNC(=O)Nc3ccc(NC(=O)NCCOCCOCCNS(=O)(=O)c4cccc([C@@H]5CN(C)Cc6c(Cl)cc(Cl)cc65)c4)cc3)c2)C1					8.80	Drug metabolism [16]: Metabolite_Notdetected; Drug metabolism [1]: Metabolite_Notdetected; Activity [2]: 10%; dose excreted at 72 h [17]: 93%; Cmax [3]: < 2 ng/mL; inhibition (Rattus norvegicus [4]): Active; inhibition at 10 µM (hERG (KCNH2)): < 50%
CN1Cc2c(Cl)cc(Cl)cc2C(c2ccc(S(=O)(=O)NCCOCCOCCNC(=O)CCC(=O)NCCOCCOCCNS(=O)(=O)c3ccc(C4CN(C)Cc5c(Cl)cc(Cl)cc54)cc3)cc2)C1 (racemic)	3.5	60	23			
CN1Cc2c(Cl)cc(Cl)cc2C(c2cccc(S(=O)(=O)NCCOCCOCCNC(=O)NCCOCCOCCNS(=O)(=O)c3cccc(C4CN(C)Cc5c(Cl)cc(Cl)cc54)c3)c2)C1 (stereo not given)	1	50	100		5.70	AUC [18]: < 19 ng·h/mL; Cmax [19]: < 5 ng/mL
CN1Cc2c(Cl)cc(Cl)cc2C(c2ccc(S(=O)(=O)NCCOCCOCCNC(=O)Nc3ccc(NC(=O)NCCOCCOCCNS(=O)(=O)c4ccc(C5CN(C)Cc6c(Cl)cc(Cl)cc65)cc4)cc3)cc2)C1 (racemic)	3	58	29			
CN1Cc2c(Cl)cc(Cl)cc2C(c2cccc(S(=O)(=O)NCCOCCOCCOCCNC(=O)Nc3ccc(NC(=O)NCCOCCOCCOCCNS(=O)(=O)c4cccc(C5CN(C)Cc6c(Cl)cc(Cl)cc65)c4)cc3)c2)C1 (racemic)	2	54	42	5.20		
CN1Cc2c(Cl)cc(Cl)cc2[C@H](c2cccc(S(=O)(=O)NCCOCCOCCNC(=O)CCC(=O)NCCOCCOCCNS(=O)(=O)c3cccc([C@@H]4CN(C)Cc5c(Cl)cc(Cl)cc54)c3)c2)C1						Drug metabolism [16]: Metabolite_Notdetected; Drug metabolism [1]: Metabolite_Notdetected; Activity [2]: 10%; dose excreted at 72 h [17]: 46%; Cmax ([3]; Sprague-Dawley, read-out: Cmax): < 2 ng/mL; inhibition (Rattus norvegicus [4]): Active; inhibition at 10 µM (hERG (KCNH2)): < 50%
CN1Cc2c(Cl)cc(Cl)cc2C(c2ccc(S(=O)(=O)NCCOCCOCCNC(=O)NCCCCNC(=O)NCCOCCOCCNS(=O)(=O)c3ccc(C4CN(C)Cc5c(Cl)cc(Cl)cc54)cc3)cc2)C1 (racemic)	3	60	14			
CN1Cc2c(Cl)cc(Cl)cc2[C@@H](c2cccc(NC(=O)[C@H](O)[C@@H](O)[C@H](O)[C@H](O)CO)c2)C1				5.10	5.60	
CN1Cc2c(Cl)cc(Cl)cc2C(c2cccc(S(=O)(=O)NCCCS(=O)(=O)O)c2)C1 (racemic)				7.30	5.80	
CN1Cc2c(Cl)cc(Cl)cc2C(c2cccc(S(=O)(=O)NCCOCCOCCNC(=O)NCCCCNC(=O)NCCOCCOCCNS(=O)(=O)c3cccc(C4CN(C)Cc5c(Cl)cc(Cl)cc54)c3)c2)C1 (racemic)	4.5	64	22	8.50		
CN1Cc2c(Cl)cc(Cl)cc2C(c2cccc(S(=O)(=O)NCCCP(=O)(O)O)c2)C1 (racemic)				7.20	5.30	
CN(CC(=O)NCCOCCOCCNS(=O)(=O)c1ccc(C2CN(C)Cc3c(Cl)cc(Cl)cc32)cc1)CC(=O)NCCOCCOCCNS(=O)(=O)c1ccc(C2CN(C)Cc3c(Cl)cc(Cl)cc32)cc1 (racemic)	3	57	45			
CN1Cc2c(Cl)cc(Cl)cc2C(c2cccc(S(=O)(=O)NCCOCCOCCNC(=O)Nc3ccc(NC(=O)NCCOCCOCCNS(=O)(=O)c4cccc(C5CN(C)Cc6c(Cl)cc(Cl)cc65)c4)cc3)c2)C1 (racemic)	3	60	32	8.10		
CN1Cc2c(Cl)cc(Cl)cc2C(c2cccc(S(=O)(=O)NCCOCCOCCOCCNC(=O)NCCCCNC(=O)NCCOCCOCCOCCNS(=O)(=O)c3cccc(C4CN(C)Cc5c(Cl)cc(Cl)cc54)c3)c2)C1 (racemic)	3	57	50			
CN1Cc2c(Cl)cc(Cl)cc2C(c2cccc(S(N)(=O)=O)c2)C1 (racemic)					6.20	Papp [20]: >= 10 10^-6 cm/s; AUC [18]: 522 ng·h/mL; Cmax [19]: 159 ng/mL; F [21]: 98%
